Source: US20250161297A1, “COMPOSITIONS AND METHODS FOR INHIBITING FSP1” (THE REGENTS OF THE UNIVERSITY OF CALIFORNIA, priority 2022, published 2025)
“Also recorded” adds a separate entry of the source. Residues, ends and D or L forms follow the SMILES beside them. *: point of attachment. Cbz = O=C(OCc1ccccc1)*; CH2F = FC*

Legend:
[1] = system: H460^C cells; test: DHA- and FINO2-induced cell death with FSEN1 co-treatment; format: cell-based
Experimental: (§1) For cell-based screen, cells were seeded in triplicate at a density of 500-750 cells per 50 μL per well in black 384-well plates (NUNC) and (Corning) 24 hr before start of imaging. After 24 hr, an additional 50 μL of drug infused medium containing 30 nM SYTOX Green Dead Cell Stain was carefully placed into the wells on top of existing medium. The plates were immediately transferred to an IncuCyte S3 imaging system (Essen Bioscience) enclosed in an incubator set to 37° C. and 5% CO2. One image per well were captured in the phase, green, and red channels every 1.5 or 3 hr over a 24 hr period, and the ratio of SYTOX Green-positive objects (dead cells) to SYTOX Green-positive plus Sg-SAFE mCherry-positive objects (total cells) was quantified using S3 image analysis software (Essen Bioscience). For each treatment condition, the SYTOX-to-′SYTOX+mCherry′-object ratio was plotted against the 24 hr imaging interval, the Area Under the Curve (AUC) was calculated and the average AUC was plotted using Prism (GraphPad). To calculate the half-maximal effective concentration (EC50) values, the AUC curve was fit to a variable slope function comparing response to drug concentration.
(§2) Synergy experiments: For cell-based synergy experiments, cells were seeded at a density of 750 cells per 25 μL per well in four black 384-well plates (Corning) 24 hr before start of imaging. After 24 hr, an additional 25 μL of drug infused medium containing 30 nM SYTOX Green Dead Cell Stain was carefully placed into the wells on top of existing medium. The plates were immediately transferred to an IncuCyte S3 imaging system (Essen Bioscience) enclosed in an incubator set to 37° C. and 5% CO2. One image per well were captured in the phase, green, and red channels every 4 hr over a 24 hr period, and the ratio of SYTOX Green-positive objects (dead cells) to SYTOX Green-positive plus Sg-SAFE mCherry-positive objects (total cells) was quantified using S3 image analysis software (Essen Bioscience). For each treatment condition, the SYTOX-to-′SYTOX+mCherry′-object ratio was plotted against the 24 hr imaging interval, the Area Under the Curve (AUC) was calculated, and the average AUC was plotted as a function of drug concentration (for example, RSL3) using Prism (GraphPad). To calculate the half-maximal effective concentration (EC50) values, the AUC curve was fit to a variable slope function comparing response to drug concentration.

[2] = system: H460^C FSP1^KO cells; test: FDA and Bioactive Library synthetic lethal screen; format: cell-based; settings: 24 h
Experimental: FDA and Bioactive Library Screen: For FDA and Bioactive Library Screen experiments, cells were seeded at a density of 750 cells per 25 uL per well in black 384-well plates (NUNC) and (Corning) 24 hr before start of imaging. After 24 hr, an additional 25 μL of drug infused medium containing 30 nM SYTOX Green Dead Cell Stain was carefully placed into the wells on top of existing medium. The plates were immediately transferred to an IncuCyte S3 imaging system (Essen Bioscience) enclosed in an incubator set to 37° C. and 5% CO2. One image per well were captured in the phase, green, and red channels every 4 hr over a 24 hr period, and the ratio of SYTOX Green-positive objects (dead cells) to SYTOX Green-positive plus SgSAFE mCherry-positive objects (total cells) was quantified using S3 image analysis software (Essen Bioscience). For each treatment condition, the SYTOX-to-‘SYTOX+mCherry’-object ratio was plotted against the 24 hr imaging interval, the Area Under the Curve (AUC) was calculated, and the average AUC was plotted as a function of drug concentration (for example, RSL3) using Prism (GraphPad). To calculate the half-maximal effective concentration (EC50) values, the AUC curve was fit to a variable slope function comparing response to drug concentration. […]

[3] = system: H460^C cells; test: GPX4 inhibitor-induced cell death with FSEN1 co-treatment; format: cell-based
Experimental: as §1, §2

[4] = system: panel of cancer cell lines of various tissue origins; test: RSL3-induced cell death in a panel of cancer cell lines; format: cell-based; settings: RSL3 plus FSEN1; 2 μM Fer-1
Experimental: as §1, with “concentration. […]” for “concentration.”

[5] = system: H460^C GPX4^KO cells; test: cell-based assay of FSP1 activity, cell death (SYTOX Green/mCherry lethal fraction)
Experimental: as §1
In addition to the in vitro activity assay, an orthogonal cell-based assay of FSP1 activity was also developed. […]

[6] = molecular target: T1, His tagged FSP1 (WT) protein (Homo sapiens, UniProt Q9BRQ8); test: in vitro FSP1 activity assay (NADH oxidation during CoQ1 reduction, 355 nm absorbance); format: biochemical; settings: inhibition of FSP1 Coenzyme Q1 oxidoreductase activity in vitro
T1 construct: made in house; host or cells: E. coli LOBSTR-BL21 (DE3)
T1 sequence (Q9BRQ8 1-373): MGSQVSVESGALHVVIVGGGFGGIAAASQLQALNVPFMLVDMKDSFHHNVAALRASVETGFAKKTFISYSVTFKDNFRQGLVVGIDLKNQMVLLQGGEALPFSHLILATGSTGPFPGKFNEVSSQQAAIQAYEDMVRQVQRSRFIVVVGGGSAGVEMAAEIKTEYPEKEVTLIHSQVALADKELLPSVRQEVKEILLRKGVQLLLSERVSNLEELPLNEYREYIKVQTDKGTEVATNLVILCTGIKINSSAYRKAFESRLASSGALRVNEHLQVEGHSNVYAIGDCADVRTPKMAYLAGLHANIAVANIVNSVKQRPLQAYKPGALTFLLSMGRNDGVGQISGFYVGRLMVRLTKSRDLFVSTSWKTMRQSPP
Experimental: For small molecule drug screen, 0.5 μL of compounds were stamped into 384 well NBS plates (Corning) in dose response diluted 2-fold with a high of 2 mM. 60 mL of purified His tagged FSP1 (WT) protein at 50 nM was prepared and 12.5 μL of this protein solution was aliquoted into 384 well NBS-plates (Corning) containing compound and allowed to incubate for 30 min at room temperature. After 30 min incubation 12.5 μL of reaction buffer (1 mM NADH, 800 µM CoQ1) was added into the 384 well NBS-plates containing protein and compounds for a final concentration of 25 nM His tagged FSP1 (WT) protein, 500 µM NADH (Sigma-Aldrich) and 400 µM CoQ1 (Sigma-Aldrich). Each well contained a 25 μL mixture and 40 µM compound in the primary screen. […] Measurements were taken at 355 nm with a EnVision 2104 multilabel plate reader (PerkinElmer). […] Compounds with confirmed data that have normalized absorbance values of less than 0.164 were chosen for dose response. […]
To measure NADH oxidation kinetics, 25 nM recombinant FSP1 was combined with 500 µM NADH and C400 µM Coenzyme Q1 in a total volume of 100 μl PBS. The change in absorbance at 355 nm, corresponding to NADH oxidation, was determined over the course of 4 h. All measurements were taken using a SpectraMax i3 Multi-Mode Platform plate reader (Molecular Devices). […]

[7] = system: H460^C Cas9 cells; test: cell-based assay, cell death in control cells
Experimental: as §1, with “concentration. […]” for “concentration.”
Employing this assay, the amount of cell death induced by 168 FSP1 inhibitors in the H460^C Cas9 and H460^C GPX4^KO cells was assessed. […]

| Molecule | effect on cell death induced by co-treatment of FSEN1 with RSL3 [3] | effect on cell death induced by DHA and FSEN1 together [1] | other results |
| --- | --- | --- | --- |
| C[C@H]1[C@@H](O)O[C@@H]2O[C@@]3(C)CC[C@H]4[C@H](C)CC[C@@H]1[C@@]24OO3 [DHA, dihydroartemisinin] | – | – | EC50 ([1]; DHA and FSEN1 treatment together): 21.3 µM; cytotoxicity in H460^C FSP1^KO cells [2]: selectively induced cell death |
| CN1C(=O)NC(Cc2c[nH]c3c(Cl)cccc23)C1=O (stereo not drawn) [Nects] | no effect | – | – |
| COC(=O)c1ccc([C@@H]2c3[nH]c4ccccc4c3C[C@@H](C(=O)OC)N2C(=O)CCl)cc1 [RSL3] | – | – | cytotoxicity in H460^C FSP1^KO cells [2]: cytotoxic |
| COC(=O)C[C@H](NC(=O)[C@H](C)NC(=O)[C@@H](NC(=O)OCc1ccccc1)C(C)C)C(=O)CF [Z-VAD] (Cbz-Val-Ala-Asp(OMe)-CH2F) | no effect | – | – |
| CCOC(=O)c1ccc(NC2CCCCC2)c(N)c1 [ferrostatin-1] | blocked | strongly suppressed | effect on cell death by co-treatment [4]: rescued |
| Cc1ccc(-c2c(C#N)c(N)n3c(nc4ccccc43)c2C#N)cc1 [iFSP1] | – | – | cell death in H460^C GPX4^KO cells [5]: sufficient to trigger ferroptosis; also recorded: selectively triggered cell death; IC50 [6]: 4.01 µM; cell death in H460^C Cas9 cells [7]: but not in the H460^C Cas9 cells |
| COC1=C(OC)C(=O)C(CCCCCCCCCCO)=C(C)C1=O [idebenone] | blocked | strongly suppressed | – |
| tocopherol | blocked | strongly suppressed | – |
